The values that follow are results of earlier work, collected in US9446036B2, “Compositions of a polyorthoester and an aprotic solvent” (Heron Therapeutics, Inc., priority 2013, dated 2016).

The conditions of this data set: room temperature (20-25° C.).

As for `CC1COC(=O)O1` (centres unmarked) [4-methyl-1,3-diololan-2-one], the “Water Miscibility” value was “water miscible”.
Regarding `O=C1CCCN1C1CCCCC1` [N-cyclohexyl-2-pyrrolidone], the “Water Miscibility” value is “poorly miscible”.
`CN1CCCC1=O` [N-methyl-2-pyrrolidone (NMP), N-methyl-2-pyrrolidone]: the “Water Miscibility” value is recorded as “water miscible”.
Consider `O=C(OCc1ccccc1)c1ccccc1` [benzyl benzoate], for which the “Water Miscibility” value is “poorly miscible”.
Turning to `C[S+](C)[O-]` [dimethyl sulfoxide], the “Water Miscibility” value is recorded as “water miscible”.
`O=C1CCCCCO1` [ester-caprolactone]: the “Water Miscibility” value is “water miscible”.
Regarding `CCOC(C)=O` [ethyl acetate], the “Water Miscibility” value is given as “partially miscible”.
On to `CCOC(=O)C(C)O` (centres unmarked) [ethyl lactate], for which the “Water Miscibility” value is listed as “water miscible”.
As to `CCCCCCCC/C=C\CCCCCCCC(=O)OCC` [ethyl oleate], the “Water Miscibility” value was “poorly miscible”.
Consider `CCCCCCCCCCCCCC(=O)OC(C)C` [isopropyl myristate], for which the “Water Miscibility” value was “poorly miscible”.
In the case of `COC(C)=O` [methyl acetate], the “Water Miscibility” value was “water miscible”.
Turning to `COC(=O)C(C)O` (centres unmarked) [methyl lactate], the “Water Miscibility” value is listed as “water miscible”.
As to `CCN1CCCC1=O` [n-ethyl-2-pyrrolidone], the “Water Miscibility” value is “water miscible”.
Take `C1CCOC1` [tetrahydrofuran]: the “Water Miscibility” value is listed as “water miscible”.
